# According to US20090270450A1, “CHEMICAL COMPOUNDS” (ASTRAZENECA AB, priority 2006, published 2009):
# Biological target: T1, His-tagged kinase domain of CSF-1R (amino acids 568-912) (Homo sapiens, UniProt P07333)
# T1 construct: The His-tagged kinase domain of CSF-1R (i.e., amino acids 568-912, GeneBank ID NM_005211); His; made in house; host or cells: baculovirus infected SF+Express insect cells
# T1 sequence (P07333 568-912): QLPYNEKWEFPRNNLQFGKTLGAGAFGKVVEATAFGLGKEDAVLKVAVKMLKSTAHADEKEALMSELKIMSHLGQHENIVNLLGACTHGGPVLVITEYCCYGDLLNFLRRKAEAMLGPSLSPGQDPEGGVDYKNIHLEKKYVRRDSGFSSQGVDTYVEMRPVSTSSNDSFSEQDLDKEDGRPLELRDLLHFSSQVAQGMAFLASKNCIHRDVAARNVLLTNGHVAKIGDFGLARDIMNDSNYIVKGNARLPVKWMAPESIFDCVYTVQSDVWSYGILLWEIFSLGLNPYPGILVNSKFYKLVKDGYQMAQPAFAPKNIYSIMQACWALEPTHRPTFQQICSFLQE
# Assay: Assay 1: CSF-1R in vitro AlphaScreen assay
# Type: biochemical
# Conditions: phosphorylation of biotinylated pEY substrate; 0.57 nM CSF-1R, 90 μM ATP
# Description: Assay 1: CSF-1R in Vitro AlphaScreen Assay
# Activity of purified CSF-1R was determined in vitro using an Amplified Luminescent Proximity Homogeneous Assay (ALPHA)(Perkin Elmer), which measures phosphorylation of the CSF-1R substrate, biotinylated poly-glutamine-tyrosine peptide (PEY-HTRF CisBio 61GT0BLD), as described below. The His-tagged kinase domain of CSF-1R (i.e., amino acids 568-912, GeneBank ID NM_005211; (see page 25 lines 13-19 of WO 2006/067445 for the sequence listing)) was purified from baculovirus infected SF+Express insect cells (1.4×10^6 cells/ml), French pressed and chromatographed through subsequent Qiagen Ni-NTA, Superflow Mono Q HR 10/10, and Superdex 200 SEC columns. Typical yield was 245 μg/l of cell pellet at >95% purity.
# The phosphorylation of the CSF-1R substrate in the presence and absence of the compound of interest was determined. Briefly, 0.57 nM of purified CSF-1R, 5 nM pEY substrate, and compound were preincubated in 1× buffer for 30 minutes at 25° C. Reactions were initiated with addition of 90 μM adenosine triphosphate (ATP) in 1× buffer and incubated at 25° C. for 60 minutes and reactions stopped by addition of 5 μl of detection mix consisting of 136 mM NaCl, 102 mM ethylenediamine tetraacetic acid, 1.65 mg/ml BSA, 40 ug/ml Streptavidin donor beads (Perkin Elmer 6760002), 40 ug/ml pTyr100 acceptor beads (Perkin Elmer 6760620). Plates were incubated at 25° C. for 18 hours in the dark. Phosphorylated substrate was detected by an EnVision plate reader (Perkin Elmer) 680 nm excitation, 520-620 nm emission. Data was graphed and IC50s calculated using Excel Fit (Microsoft).
row,SMILES,IC50 [nM]
1,"COc1cc2ncc(C(N)=O)c(Nc3ccc(Cl)c(Cl)c3)c2cc1CCCN [Example 1, 6-(3-Aminopropyl)-4-[(3,4-dichlorophenyl)amino]-7-methoxyquinoline-3-carboxamide]",2
2,"CCOc1cc2ncc(C(N)=O)c(Nc3cccc(Cl)c3F)c2cc1CCCO [Example 3, 4-[(3-Chloro-2-fluorophenyl)amino]-7-ethoxy-6-(3-hydroxypropyl)quinoline-3-carboxamide]",5
3,"COc1cc2ncc(C(N)=O)c(Nc3ccc(F)cc3F)c2cc1CCCN1CCCCC1 [Example 8, 4-[(2,4-Difluorophenyl)amino]-7-methoxy-6-(3-piperidin-1-ylpropyl)quinoline-3-carboxamide]",20
4,"COc1cc2ncc(C(N)=O)c(Nc3ccc(F)cc3F)c2cc1CCCN(C)C [Example 9, 4-[(2,4-Difluorophenyl)amino]-6-[3-(dimethylamino)propyl]-7-methoxyquinoline-3-carboxamide]",3
5,"COc1cc2ncc(C(N)=O)c(Nc3ccc(F)cc3F)c2cc1CCCNC1CC1 [Example 10, 6-[3-(Cyclopropylamino)propyl]-4-[(2,4-difluorophenyl)amino]-7-methoxyquinoline-3-carboxamide]",23
6,"COc1cc2ncc(C(N)=O)c(Nc3ccc(Cl)c(Cl)c3)c2cc1CCCNC1CC1 [Example 11, 6-[3-(Cyclopropylamino)propyl]-4-[(3,4-dichlorophenyl)amino]-7-methoxyquinoline-3-carboxamide]",4
7,"COc1cc2ncc(C(N)=O)c(Nc3ccc(Cl)c(Cl)c3)c2cc1CCCN1CCCCC1 [Example 12, 4-[(3,4-Dichlorophenyl)amino]-7-methoxy-6-(3-piperidin-1-ylpropyl)quinoline-3-carboxamide]",4
8,"COc1cc2ncc(C(N)=O)c(Nc3ccc(Cl)c(Cl)c3)c2cc1CCCN(C)C [Example 13, 4-[(3,4-Dichlorophenyl)amino]-6-[3-(dimethylamino)propyl]-7-methoxyquinoline-3-carboxamide]",1
9,"COc1cc2ncc(C(N)=O)c(Nc3ccc(F)cc3F)c2cc1CCCO [Example 14, 4-[(2,4-Difluorophenyl)amino]-6-(3-hydroxypropyl)-7-methoxyquinoline-3-carboxamide]",8
10,"COc1cc2ncc(C(N)=O)c(Nc3ccc(Cl)c(Cl)c3)c2cc1CCCO [Example 15, 4-[(3,4-Dichlorophenyl)amino]-6-(3-hydroxypropyl)-7-methoxyquinoline-3-carboxamide]",2
11,"CCOc1cc2ncc(C(N)=O)c(Nc3ccc(F)cc3F)c2cc1CCCO [Example 16, 4-[(2,4-Difluorophenyl)amino]-7-ethoxy-6-(3-hydroxypropyl)quinoline-3-carboxamide]",5
12,"COc1cc2ncc(C(N)=O)c(Nc3ccc(F)c(Cl)c3)c2cc1CCCO [Example 17, 4-[(3-Chloro-4-fluorophenyl)amino]-6-(3-hydroxypropyl)-7-methoxyquinoline-3-carboxamide]",9
13,"COc1cc2ncc(C(N)=O)c(Nc3cccc(Cl)c3F)c2cc1CCCO [Example 18, 4-[(3-Chloro-2-fluorophenyl)amino]-6-(3-hydroxypropyl)-7-methoxyquinoline-3-carboxamide]",< 3
14,"COc1cc2ncc(C(N)=O)c(Nc3cccc(Cl)c3Cl)c2cc1CCCO [Example 19, 4-[(2,3-Dichlorophenyl)amino]-6-(3-hydroxypropyl)-7-methoxyquinoline-3-carboxamide]",8
15,"CCc1ccc(Nc2c(C(N)=O)cnc3cc(OC)c(CCCO)cc23)cc1 [Example 20, 4-[(4-Ethylphenyl)amino]-6-(3-hydroxypropyl)-7-methoxyquinoline-3-carboxamide]",38

# The next lines start with the values.
row,IC50 [nM],SMILES
1,18,"CCc1ccc(Nc2c(C(N)=O)cnc3cc(OC)c(C#CCO)cc23)cc1 [Example 21, 4-[(4-Ethylphenyl)amino]-6-(3-hydroxyprop-1-yn-1-yl)-7-methoxyquinoline-3-carboxamide]"
2,33,"CCOc1cc2ncc(C(N)=O)c(Nc3ccc(CC)cc3)c2cc1CCCO [Example 22, 7-Ethoxy-4-[(4-ethylphenyl)amino]-6-(3-hydroxypropyl)quinoline-3-carboxamide]"
3,22,"CCOc1cc2ncc(C(N)=O)c(Nc3ccc(Cl)c(Cl)c3)c2cc1CCCO [Example 23, 4-[(3,4-Dichlorophenyl)amino]-7-ethoxy-6-(3-hydroxypropyl)quinoline-3-carboxamide]"
4,26,"CCOc1cc2ncc(C(N)=O)c(Nc3cccc(Cl)c3Cl)c2cc1CCCO [Example 24, 4-[(2,3-Dichlorophenyl)amino]-7-ethoxy-6-(3-hydroxypropyl)quinoline-3-carboxamide]"
5,7,"CCOc1cc2ncc(C(N)=O)c(Nc3ccc(F)c(Cl)c3)c2cc1CCCO [Example 25, 4-[(3-Chloro-4-fluorophenyl)amino]-7-ethoxy-6-(3-hydroxypropyl)quinoline-3-carboxamide]"
6,140,"COc1cc2ncc(C(N)=O)c(Nc3ccc(Cl)c(Cl)c3)c2cc1C1CC1 [Example 26, 6-Cyclopropyl-4-[(3,4-dichlorophenyl)amino]-7-methoxyquinoline-3-carboxamide]"
7,65,"COc1cc2ncc(C(N)=O)c(Nc3ccc(F)cc3F)c2cc1C1CC1 [Example 27, 6-Cyclopropyl-4-[(2,4-difluorophenyl)amino]-7-methoxyquinoline-3-carboxamide]"
8,14,"COc1cc2c(Nc3ccc(F)cc3F)c(C(N)=O)cnc2cc1C1CC1 [Example 28, 7-Cyclopropyl-4-[(2,4-difluorophenyl)amino]-6-methoxyquinoline-3-carboxamide]"
9,57,"COc1cc2c(Nc3ccc(Cl)c(Cl)c3)c(C(N)=O)cnc2cc1C1CC1 [Example 29, 7-Cyclopropyl-4-[(3,4-dichlorophenyl)amino]-6-methoxyquinoline-3-carboxamide]"
10,76,"CCOc1cc2ncc(C(N)=O)c(Nc3ccc(F)cc3F)c2cc1-c1ccc(OC)nc1 [Example 30, 4-[(2,4-Difluorophenyl)amino]-7-ethoxy-6-(6-methoxypyridin-3-yl)quinoline-3-carboxamide]"
11,43,"CCOc1cc2ncc(C(N)=O)c(Nc3ccc(F)cc3F)c2cc1-c1cccnc1 [Example 31, 4-[(2,4-Difluorophenyl)amino]-7-ethoxy-6-pyridin-3-ylquinoline-3-carboxamide]"
12,35,"CCOc1cc2ncc(C(N)=O)c(Nc3ccc(F)cc3F)c2cc1-c1c(C)noc1C [Example 32, 4-[(2,4-Difluorophenyl)amino]-6-(3,5-dimethylisoxazol-4-yl)-7-ethoxyquinoline-3-carboxamide]"
13,96,"CCOc1cc2ncc(C(N)=O)c(Nc3ccc(F)cc3F)c2cc1-c1ccc[nH]1 [Example 33, 4-[(2,4-Difluorophenyl)amino]-7-ethoxy-6-(1H-pyrrol-2-yl)quinoline-3-carboxamide]"
14,25,"CCOc1cc2ncc(C(N)=O)c(Nc3ccc(F)cc3F)c2cc1-c1cncnc1 [Example 34, 4-[(2,4-Difluorophenyl)amino]-7-ethoxy-6-pyrimidin-5-ylquinoline-3-carboxamide]"
15,61,"CCOc1cc2ncc(C(N)=O)c(Nc3ccc(F)cc3F)c2cc1-c1ccncc1 [Example 35, 4-[(2,4-Difluorophenyl)amino]-7-ethoxy-6-pyridin-4-ylquinoline-3-carboxamide]"
16,28,"CCOc1cc2ncc(C(N)=O)c(Nc3ccc(F)cc3F)c2cc1-c1cn[nH]c1 [Example 36, 4-[(2,4-Difluorophenyl)amino]-7-ethoxy-6-(1H-pyrazol-4-yl)quinoline-3-carboxamide]"
17,440,"CCOc1cc2ncc(C(N)=O)c(Nc3ccc(F)cc3F)c2cc1-c1cnn(CC(C)C)c1 [Example 37, 4-[(2,4-Difluorophenyl)amino]-7-ethoxy-6-(1-isobutyl-1H-pyrazol-4-yl)quinoline-3-carboxamide]"
18,660,"CCOc1cc2ncc(C(N)=O)c(Nc3ccc(F)cc3F)c2cc1C1=CCN(C(=O)OC(C)(C)C)CC1 [Example 38, tert-Butyl 4-{3-(aminocarbonyl)-4-[(2,4-difluorophenyl)amino]-7-ethoxyquinolin-6-yl}-3,6-dihydropyridine-1(2H)-carboxylate]"
